The text below walks through data of patent US10195158B2, “Bioactive oil based polyesteramide nanofibers for wound healing applications” (Council of Scientific and Industrial Research, priority 2014, dated 2019).

Converted amounts (≈) assume the structure as drawn.

Broadly, the MIC is the smallest concentration in the dilution series that meets the test's criterion for growth inhibition. High values mean weaker potency, low ones greater potency.

This assay relates to Staphylococcus aureus. Description: Minimum inhibitory concentration of amoxicillin. The format is cell-based. Particulars: susceptible bacteria.

In turn, `CC1(C)S[C@@H]2[C@H](NC(=O)[C@H](N)c3ccc(O)cc3)C(=O)N2[C@H]1C(=O)O` [Amoxicillin] displayed an MIC of 0.05 to 8 µg/mL (≈ 0.137 to 21.9 µM).
